Test results published in PMC2361651 (British Journal of Cancer, 2005).

Key:
[1] = human, in vivo
[2] = test system: treatment refractory solid tumours; assay: Tumour response (WHO response criteria); format: in vivo, human
Excerpt: The study protocol was approved by the Research Ethics Committee of the Royal […] Trust. Written informed consent was obtained from all participants. All patients had treatment refractory solid tumours and were required to have at least one tumour deposit suitable for DCE-MRI evaluation. A suitable lesion had to be ⩾2 cm in size and in an anatomical position not subject to significant respiratory excursion. […] Exclusion criteria included patients with a known history of allergy to radiologic contrast agents or to Cremophor®; a Karnovsky performance status of <60%; a history of myocardial infarction, severe or unstable angina within 6 months of the study; diabetes mellitus with clinical evidence of severe peripheral vascular disease or ulceration; a medical condition or device implant that would interfere with or prevent MRI scans; or a serious concomitant medical condition that could interfere with the participation in the study or interpretation of study results.

[3] = test system: tumour vascular permeability; assay: DCE-MRI of tumour vascular permeability; format: in vivo, human; settings: for increase in leakage space (Ve): final scan (median 35 days), soft-tissue sarcoma patient
Method: All patients were asked to have a baseline DCE-MRI examination within the 7 days prior to receiving the study compound under study conditions as described above. Follow-up scans were performed on day 1 and then after 4 weeks of therapy. After the first three patients' examination, the protocol was amended to day 1, 2 weeks, 6 weeks and 6 weekly thereafter if the patient remained on study. All examinations were performed on a 1.5 T MRI system (Vision, Siemens Medical Systems, Erlangen, Germany) approximately 4 h after the commencement of the treatment infusion.
The image collection protocol comprised routine orthogonal T1- and T2-weighted images taken through the previously identified target lesion, to allow localisation and bi-dimensional tumour measurement. The dynamic imaging used a five-slice saturation recovery turbo fast low-angle shot sequence (SRTF) taken through the centre of the target lesion. Proton density-weighted images were acquired, followed by a series of T1-weighted images employing the same gain and image scaling factors. The sequential T1-weighted images were acquired every 9 s for 6.3 min (42 time points).
Gadopentetate dimeglumine (Magnevist Schering Health Care Limited, Burgess Hill, Sussex, UK) was injected intravenously using a mechanical power injector, through a peripherally placed cannula. This contrast was administered as a bolus after the third baseline data point was acquired at a dose of 0.1 mmol kg^−1 body weight. The use of the mechanical power injector allowed the contrast to be delivered within 10 s. The contrast injection was followed by a 20 ml flush of normal saline.
Using the resultant scanned images, two trained observers (AP, CH) blinded to the clinical outcome of the patients evaluated the patterns of enhancement within a designated region of interest. Contrast medium kinetic parameters were then derived for each pixel using MR Imaging Workbench software®. Quantitative and semiquantitative statistical analysis was then performed on these parameters using StatsDirect software (Research Solutions, Cambridge, UK).

[4] = Phase I safety and tolerability, twice weekly intravenous infusion
[5] = test system: coagulation / fibrinolytic pathway; assay: Coagulation parameters and expanded coagulation series in patients; format: in vivo, human
Method: During the dose escalation stage of the protocol, a standard series of coagulation parameters (APPT, INR and fibrinogen) was explored at baseline prior to therapy and every 2 weeks thereafter. In the dose expansion phase of the protocol, in response to the clinical occurrence of two separate venous thrombotic episodes in study patients, an expanded coagulation series was performed.
At each time point, blood was collected in citrated and EDTA tubes (Becton-Dickinson Vacutainer Systems, Europe). The samples from the citrated tubes were immediately centrifuged (at 4°C for 10 min at 3000 r.p.m.) supernatants pooled into inert plastic, centrifuged again (at 4°C, 10 min at 3000 r.p.m.) and the resultant sample stored in inert plastic tubes at −70°C until analysis. The sample taken into EDTA was centrifuged (at 4°C, for 10 min at 3000 r.p.m.), the supernatant decanted into inert plastic tubes and again stored at −70°C until analysis.

[6] = set-up: method as in Fong et al, 1999; settings: preclinical models, intracellular; ref Fong et al, 1999; cited from earlier work
[7] = test system: KIT (the receptor for stem cell factor); set-up: method as in Antonian et al, 2000; Smolich et al, 2001; Yee et al, 2002; settings: ref Antonian et al, 2000; Smolich et al, 2001; Yee et al, 2002; cited from earlier work
[8] = cited from earlier work
[9] = 27 patients treated, two not evaluable
[10] = mid-treatment (2 weeks), one patient, squamous cell carcinoma nasopharynx, 110 mg m^−2

Q: For `Cc1cc(C)c(/C=C2\C(=O)Nc3ccccc32)[nH]1` [SU5416, Z-3-[(2,4-dimethylpyrrol-5-yl)methylidenyl]-2-indolinone], which “Grade II hypersensitivity reactions, patients affected” value [1] is on record?
A: Its value is 11 patients.

Q: And the “patients with progressive disease as best response” value [2, 9]?
A: The value was 14 patients.

Q: And the “patients with stable disease at 6 weeks” value [2, 9]?
A: Its value is 12 patients.

Q: What about the “patients remaining on therapy for more than 12 weeks” value ([2]; haemangioendothelioma, ovarian and adrenocortical carcinoma) of the same compound?
A: The value was “three”.

Q: What about the “increase in leakage space (Ve)” value ([3]; 48 mg m^−2) of the same compound?
A: Its value is 36.5%.

Q: What about the “increase in leakage space (Ve)” value ([3]; final expansion cohort) of the same compound?
A: Its value is 34.5%.

Q: What about the “change in Ktrans” value ([3]; increase, day 1, one patient with metastatic melanoma (target lesion brain)) of the same compound?
A: Its value is 91%.

Q: What about the “change in Ktrans” value [3, 10] of the same compound?
A: The value was −51.9%.

Q: What about the “change in Ve” value [3, 10] of the same compound?
A: The value was −48.6%.

Q: And the “pain or burning discomfort in tumour-related sites shortly after infusion, patients” value ([4]; dose expansion cohort)?
A: The value was “three”.

Q: And the “dysphonia, patients” value ([4]; therapy for 6 weeks or more, reversible over several months)?
A: Its value is “Two”.

Q: And the “Venous thrombotic events, patients” value ([4]; thrombosis of the inferior vena cava and a pulmonary embolism, differing dose levels)?
A: The value was “two”.

Q: What about the “recommended dose for future study” value ([4]; twice weekly intravenous infusion) of the same compound?
A: The value was 145 mg m^−2.

Q: What about the maximum-tolerated dose ([4]; twice weekly intravenous infusion, 48 to 190 mg m^−2) of the same compound?
A: Its maximum-tolerated dose is “not identified”.

Q: What about the “change in INR, APTT or fibrinogen” value ([5]; baseline and every 2 weeks) of the same compound?
A: The value was “No change”.

Q: What about the “reduction in plasmin–anti-plasmin complexes, median change” value ([5]; six patients, expanded panel) of the same compound?
A: The value was 12.7 µg/L.

Q: What about the “reduction in plasmin–anti-plasmin complexes, range of change” value ([5]; six patients, expanded panel) of the same compound?
A: Its value is 0 to 36 µg/L.

Q: What about the “acute increase in plasminogen activator inhibitor (PAI-1) levels, median change” value ([5]; six patients, expanded panel, recovery at 24 h) of the same compound?
A: The value was 37.3 IU.

Q: And the “time for which levels capable of target inhibition are maintained” value [6]?
A: Its value is over 48 h.

Q: And the “inhibition of KIT” value [7]?
A: The value was “potent competitive inhibitor”.

Q: What about the “degree of induction of SU5416 metabolism” value ([8]; same schedule, sampling from day 1, ref Cropp et al, 1999, Rosen et al) of the same compound?
A: The value was 69%.

Q: What about the “dose at which DLT (projectile vomiting and severe headache) was reported” value ([8]; same twice weekly schedule, ref Rosen et al, 1999) of the same compound?
A: The value was 190 mg m^−2.
